From PubChem BioAssay (NCI) come the findings set out here.

Some test systems named below: COLO 205 colon; HCT-15 colon; HOP-92 NSCLC; IGROV1 ovarian; K-562 leukemia; NCI-H226 lung; OVCAR-8 ovarian; SK-MEL-2 melanoma; SN12C renal; T-47D breast.
Holding throughout (test): NCI tumour cell line growth inhibition, 48 h

Several values for one entry are separate records, joined by “and”; a condition that tells them apart may be missing. Identical values can stand only once.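 48-hour exposure; five concentrations; linearly interpolated endpoints. Abbreviation: GI50, concentration required for 50% inhibition of growth. TGI denotes the concentration required for complete inhibition of growth.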

As to `O=C1C(Cl)=C(Nc2cccc(F)c2)C(=O)N1Cc1ccc(Cl)cc1`, the GI50 with COLO 205 colon is 516 nM; in the test on HCT-15 colon, 398 nM; in the test on HOP-92 NSCLC, 11.4 µM; in the test on IGROV1 ovarian, 2.92 µM; with K-562 leukemia, 206 nM; with NCI-H226 lung, 0.188 µM. The GI50 in the test with OVCAR-8 ovarian is 0.759 µM; with SK-MEL-2 melanoma, 5.96 µM; in the test on SN12C renal it was 0.825 µM; in the test on T-47D breast, 3.57 µM. The TGI is 11.9 µM with COLO 205 colon; 26.2 µM in the test on HOP-92 NSCLC; 16.9 µM in the test on IGROV1 ovarian; greater than 32.1 µM in the test with K-562 leukemia; 0.852 µM in the test with NCI-H226 lung; 8.83 µM with OVCAR-8 ovarian. The TGI in the test with SK-MEL-2 melanoma is greater than 28.4 µM; in the test with SN12C renal it was 4.81 µM; with T-47D breast it was 27.7 µM.
For the compound `C[C@]12CC[C@@H]3c4ccc(OC(=O)N(CCCl)CCCl)cc4CC[C@H]3[C@@H]1CC[C@@H]2O`, the GI50 with COLO 205 colon is 2990 nM; with HCT-15 colon, 875 nM; in the test with HOP-92 NSCLC, 9.04 µM; in the test with IGROV1 ovarian it was 4.7 µM; with NCI-H226 lung, 3.98 µM; in the test with OVCAR-8 ovarian, 3.85 µM. Further, the GI50 is 4.31 µM in the test with SK-MEL-2 melanoma, 3.37 µM in the test with SN12C renal and 4.83 µM with T-47D breast. The TGI in the test with COLO 205 colon is 8.94 µM; in the test on HOP-92 NSCLC it was 43.2 µM and 6.51 µM; with IGROV1 ovarian, 33.4 µM and 3.65 µM; with K-562 leukemia it was greater than 47.5 µM; in the test on NCI-H226 lung, 22.3 µM; with SK-MEL-2 melanoma, 14.8 µM. The TGI was 17.4 µM and 3.48 µM in the test with SN12C renal; 40.7 µM in the test with T-47D breast.
`CCOC(=O)N1CCN(/[N+]([O-])=N/Oc2ccc([N+](=O)[O-])cc2[N+](=O)[O-])CC1`: the GI50 with COLO 205 colon was 349 nM; with HCT-15 colon it was 346 nM; in the test on HOP-92 NSCLC it was 0.122 µM; in the test with IGROV1 ovarian it was 9.04 µM; with K-562 leukemia, 153 nM; in the test with NCI-H226 lung it was 3.77 µM. The GI50 was 3.49 µM with OVCAR-8 ovarian, 7.08 µM in the test on SK-MEL-2 melanoma, 1.45 µM with SN12C renal and 8 µM with T-47D breast. The TGI turned out to be 14.4 µM with COLO 205 colon; 1.46 µM in the test on HCT-15 colon; 3.75 µM in the test with HOP-92 NSCLC; 30.2 µM in the test on IGROV1 ovarian; 3.72 µM with K-562 leukemia; 16.7 µM in the test on NCI-H226 lung. Besides, the TGI in the test with OVCAR-8 ovarian was 12.9 µM; in the test with SK-MEL-2 melanoma, 25.9 µM; with SN12C renal, 6.92 µM; in the test on T-47D breast, greater than 67.1 µM.
With `CNC(=O)Nc1nc2ccc([N+](=O)[O-])cc2[nH]1`, the TGI in the test with COLO 205 colon, in the test on HCT-15 colon, with HOP-92 NSCLC, with IGROV1 ovarian, in the test on K-562 leukemia and with NCI-H226 lung was greater than 100 µM each time. Further, the TGI in the test with OVCAR-8 ovarian, in the test with SK-MEL-2 melanoma, in the test on SN12C renal and with T-47D breast was greater than 100 µM each time.
For `N#Cc1ccc(OCc2nc(N)nc(N)c2-c2ccc(Cl)c(Cl)c2)cc1`, the GI50 in the test with COLO 205 colon was 4020 nM; with HCT-15 colon, 525 nM; in the test with HOP-92 NSCLC, 4.6 µM; in the test with IGROV1 ovarian it was 1.73 µM; in the test with K-562 leukemia it was 359 nM; in the test on NCI-H226 lung it was 4.86 µM. For the same compound, the GI50 with OVCAR-8 ovarian is 0.621 µM; in the test with SK-MEL-2 melanoma, 3.55 µM; in the test with SN12C renal it was 2.79 µM; with T-47D breast, 9.64 µM. Further, the TGI with COLO 205 colon, in the test on HCT-15 colon, in the test with HOP-92 NSCLC, with IGROV1 ovarian, in the test on K-562 leukemia and with NCI-H226 lung was greater than 100 µM throughout. For the same compound, the TGI in the test with OVCAR-8 ovarian is 54.5 µM; in the test on SK-MEL-2 melanoma, 22 µM; in the test with SN12C renal, greater than 100 µM; in the test on T-47D breast it was greater than 100 µM.
For `O=C(Oc1cccc(F)c1OC(=O)c1cccc(O)c1)c1cccc(O)c1`, the GI50 in the test on COLO 205 colon is 24400 nM; in the test with HCT-15 colon it was 15300 nM; in the test with HOP-92 NSCLC, 46.6 µM; with IGROV1 ovarian, 7.47 µM; in the test on K-562 leukemia, 38000 nM; in the test on NCI-H226 lung, 45.3 µM. Also, the GI50 in the test on OVCAR-8 ovarian was 22.8 µM; in the test with SK-MEL-2 melanoma, greater than 100 µM; in the test on SN12C renal, 56.6 µM; with T-47D breast, 23.1 µM. Further, the TGI with COLO 205 colon is 73.7 µM; with HCT-15 colon, greater than 100 µM; in the test with HOP-92 NSCLC, greater than 100 µM; in the test with IGROV1 ovarian, greater than 100 µM; in the test with K-562 leukemia, greater than 100 µM; with NCI-H226 lung, greater than 100 µM. Besides, the TGI was greater than 100 µM in the test on OVCAR-8 ovarian, greater than 100 µM in the test with SK-MEL-2 melanoma, greater than 100 µM in the test with SN12C renal and 79.1 µM with T-47D breast.
`CN(/N=C/c1cccc2cccnc12)c1ccc([N+](=O)[O-])cc1[N+](=O)[O-]`: the TGI with COLO 205 colon is greater than 100 µM; in the test with HCT-15 colon, greater than 100 µM; with HOP-92 NSCLC, 42.7 µM; in the test on IGROV1 ovarian, 70.8 µM; in the test on K-562 leukemia, greater than 100 µM; in the test on NCI-H226 lung, 64.4 µM. Further, the TGI with OVCAR-8 ovarian is greater than 100 µM; in the test with SK-MEL-2 melanoma, 47.4 µM; in the test on SN12C renal it was greater than 100 µM; in the test on T-47D breast, 85.4 µM.
On to `C/C=C(\C)C(=O)NC1=CC[C@@]2(C)C(=CCC3C2CC[C@@]2(C)C3CC[C@@H]2C(C)N(C)C)C1=O` (stereo partly specified), for which the GI50 is 1720 nM in the test on COLO 205 colon; 1540 nM with HCT-15 colon; 1.66 µM with HOP-92 NSCLC; 5.17 µM in the test on IGROV1 ovarian; 451 nM with K-562 leukemia; 4.65 µM in the test on NCI-H226 lung. For the same compound, the GI50 is 10.1 µM in the test on OVCAR-8 ovarian, 7.52 µM in the test on SK-MEL-2 melanoma, 4.47 µM with SN12C renal and 1.94 µM with T-47D breast. Also, the TGI in the test with COLO 205 colon amounted to 3.45 µM; in the test on HCT-15 colon, 4.65 µM; with HOP-92 NSCLC, 14.8 µM; in the test with IGROV1 ovarian, 21 µM; with K-562 leukemia it was 2.86 µM; in the test with NCI-H226 lung it was 36.3 µM. In addition, the TGI in the test on OVCAR-8 ovarian is greater than 77.9 µM; in the test with SK-MEL-2 melanoma, 22.9 µM; in the test on SN12C renal, 22.3 µM; with T-47D breast it was 25.7 µM.
With `CC(=O)NC1C(OC[C@@H](CC(=O)N[C@@H](CC(=O)O)CC(=O)N[C@H](CC(=O)N[C@@H](CCCN)CC(=O)N[C@@H](CCCN)CC(=O)N[C@H](CC(N)=O)C(C)C)C(C)C)NC(=O)C[C@@H](N)C(C)C)OC(CO)C(O)C1O` (stereo partly specified), the GI50 with COLO 205 colon was greater than 100000 nM; with HCT-15 colon it was greater than 100000 nM; in the test on HOP-92 NSCLC, greater than 100 µM; with IGROV1 ovarian, greater than 100 µM; in the test on K-562 leukemia it was greater than 100000 nM; with NCI-H226 lung, greater than 100 µM. The GI50 in the test with OVCAR-8 ovarian, with SK-MEL-2 melanoma, with SN12C renal and in the test on T-47D breast was greater than 100 µM in each case. Also, the TGI with COLO 205 colon, in the test with HCT-15 colon, in the test on HOP-92 NSCLC, in the test on IGROV1 ovarian, in the test with K-562 leukemia and in the test on NCI-H226 lung was greater than 100 µM each time. Moreover, the TGI in the test on OVCAR-8 ovarian, in the test on SK-MEL-2 melanoma, in the test with SN12C renal and with T-47D breast was greater than 100 µM in each case.
